Test results published in patent US20150374767A1, “Treatment of Cancer” (priority 2013, published 2015).
pEC50, pIC50, pKi: −log10 of the molar value. Entries after “also recorded” stand apart in the source; their conditions may differ. Where a name gives a salt, the structure may show the parent alone.

Tests used:
[1] = test system: B-Raf; details: read-out: IC50 for B-Raf; cited from earlier work
[2] = test system: VEGFR2; details: cited from earlier work; for pIC50: read-out: IC50 for VEGFR2 (KDR)
[3] = test system: HepG2-luc; format: cell-based, human
[4] = test system: UVW; format: cell-based, human
[5] = test system: CP70; format: cell-based, human
[6] = test system: PARP; experiment: PARP cleavage by Western blotting; format: cell-based, human; details: in combination with HSV1716
[7] = test system: HSV1716gfp; experiment: GFP expression during infection with HSV1716gfp (drug toxicity to virus); format: cell-based, herpes simplex virus
[8] = test system: U87; format: cell-based, human
[9] = test system: Virttu cell line panel; experiment: cells; format: cell-based; details: Homo sapiens; most/all cell lines of panel, 72 hrs; read-out: IC50 (DCP leakage), range over cell lines
[10] = test system: SPC111; experiment: combination with HSV1716, Chou-Talalay, SPC111; format: cell-based, human; details: SPC111, HSV1716 moi 0.5 and 0.05, 72 hours
[11] = test system: Virttu cell panel; experiment: combination with HSV1716, DCP cell death, Chou-Talalay analysis, cell panel; format: cell-based, human
[12] = test system: One58; format: cell-based, human
[13] = test system: SKOV3; format: cell-based, human
[14] = test system: Hep3B; format: cell-based, human
[15] = molecular target: c-Met (Homo sapiens, UniProt P08581); details: cited from earlier work
Chain of c-Met (P08581 25-1390): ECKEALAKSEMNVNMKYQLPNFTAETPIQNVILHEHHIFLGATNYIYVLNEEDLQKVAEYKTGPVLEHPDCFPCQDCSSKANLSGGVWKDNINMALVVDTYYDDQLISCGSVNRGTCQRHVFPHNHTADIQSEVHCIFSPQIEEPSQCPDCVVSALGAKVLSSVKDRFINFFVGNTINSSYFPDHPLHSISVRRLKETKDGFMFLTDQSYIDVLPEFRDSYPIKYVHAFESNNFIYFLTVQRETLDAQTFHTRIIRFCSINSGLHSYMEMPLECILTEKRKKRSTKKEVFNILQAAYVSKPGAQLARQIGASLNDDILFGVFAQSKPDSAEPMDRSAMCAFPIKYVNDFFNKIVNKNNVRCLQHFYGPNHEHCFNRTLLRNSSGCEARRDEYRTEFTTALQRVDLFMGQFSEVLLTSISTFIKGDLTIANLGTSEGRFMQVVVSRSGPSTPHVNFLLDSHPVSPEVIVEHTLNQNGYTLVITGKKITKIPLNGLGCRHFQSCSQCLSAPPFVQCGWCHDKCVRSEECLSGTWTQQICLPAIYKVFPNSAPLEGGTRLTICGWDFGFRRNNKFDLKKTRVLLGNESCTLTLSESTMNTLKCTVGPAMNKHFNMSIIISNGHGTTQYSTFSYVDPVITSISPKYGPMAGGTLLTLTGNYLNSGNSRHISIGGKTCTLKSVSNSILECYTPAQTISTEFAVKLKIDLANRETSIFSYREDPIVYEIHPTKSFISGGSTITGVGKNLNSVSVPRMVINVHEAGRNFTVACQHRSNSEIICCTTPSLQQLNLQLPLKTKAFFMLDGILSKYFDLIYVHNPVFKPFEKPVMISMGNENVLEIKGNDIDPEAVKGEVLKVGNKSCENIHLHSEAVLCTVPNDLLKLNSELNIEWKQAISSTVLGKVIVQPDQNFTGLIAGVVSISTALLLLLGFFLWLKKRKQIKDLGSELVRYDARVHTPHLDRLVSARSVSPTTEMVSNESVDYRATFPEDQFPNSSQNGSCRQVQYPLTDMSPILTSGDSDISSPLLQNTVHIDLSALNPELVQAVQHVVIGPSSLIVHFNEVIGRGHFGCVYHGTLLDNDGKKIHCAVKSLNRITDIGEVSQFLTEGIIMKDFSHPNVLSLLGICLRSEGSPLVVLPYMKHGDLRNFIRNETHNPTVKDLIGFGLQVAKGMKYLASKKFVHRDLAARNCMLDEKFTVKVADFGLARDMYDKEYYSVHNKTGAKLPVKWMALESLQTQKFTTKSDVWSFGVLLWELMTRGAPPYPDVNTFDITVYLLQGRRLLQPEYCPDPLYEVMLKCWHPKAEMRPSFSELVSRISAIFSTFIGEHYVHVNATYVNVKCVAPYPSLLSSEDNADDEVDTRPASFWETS

[16] = molecular target: PDGFRβ (Homo sapiens, UniProt P09619); details: cited from earlier work
Chain of PDGFRβ (P09619 33-1106): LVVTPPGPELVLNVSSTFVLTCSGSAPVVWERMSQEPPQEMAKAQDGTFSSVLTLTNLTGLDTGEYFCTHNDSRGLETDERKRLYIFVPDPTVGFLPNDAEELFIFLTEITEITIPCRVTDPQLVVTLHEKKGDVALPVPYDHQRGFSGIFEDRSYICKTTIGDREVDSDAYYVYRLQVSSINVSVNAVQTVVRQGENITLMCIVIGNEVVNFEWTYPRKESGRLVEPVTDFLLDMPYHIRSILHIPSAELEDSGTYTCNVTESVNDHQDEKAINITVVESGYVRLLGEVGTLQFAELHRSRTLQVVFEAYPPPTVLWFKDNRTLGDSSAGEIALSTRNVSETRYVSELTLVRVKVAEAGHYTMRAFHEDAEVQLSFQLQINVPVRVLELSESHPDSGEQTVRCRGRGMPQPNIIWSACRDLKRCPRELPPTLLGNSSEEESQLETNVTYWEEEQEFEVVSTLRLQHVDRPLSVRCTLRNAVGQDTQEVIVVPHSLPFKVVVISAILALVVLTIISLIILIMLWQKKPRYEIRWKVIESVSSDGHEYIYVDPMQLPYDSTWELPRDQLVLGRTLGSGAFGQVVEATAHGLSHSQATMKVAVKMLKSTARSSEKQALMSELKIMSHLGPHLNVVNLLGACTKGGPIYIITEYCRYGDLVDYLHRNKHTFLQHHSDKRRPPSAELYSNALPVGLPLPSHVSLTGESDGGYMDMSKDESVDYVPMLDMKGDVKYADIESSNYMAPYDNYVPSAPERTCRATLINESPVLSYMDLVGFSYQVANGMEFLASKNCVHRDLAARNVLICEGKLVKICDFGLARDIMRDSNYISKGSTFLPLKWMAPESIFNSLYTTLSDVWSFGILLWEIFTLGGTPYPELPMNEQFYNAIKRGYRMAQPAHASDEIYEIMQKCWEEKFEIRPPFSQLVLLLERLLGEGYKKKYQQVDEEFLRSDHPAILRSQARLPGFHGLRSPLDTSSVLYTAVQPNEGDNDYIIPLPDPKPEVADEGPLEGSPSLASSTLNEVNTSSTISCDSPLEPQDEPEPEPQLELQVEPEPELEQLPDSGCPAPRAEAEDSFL

[17] = test system: Ovcar3; format: cell-based, human
[18] = test system: HuH7; format: cell-based, human
[19] = test system: human gastric carcinoma xenograft; experiment: patient-derived human gastric carcinoma xenograft model; parameters: species or system mice; details: mouse, in vivo
Procedure: HSV1716 (Seprehvir) was used in a personalised oncology study. Patient-derived tumour samples were obtained from a gastric carcinoma. There have been no previous in vitro or in vivo pre-clinical studies with Seprehvir in human gastric carcinoma cells/xenografts. Seprehvir was stored at −70° C., and multiple vials were provided to avoid repeated freeze/thawing.
Two groups of 3 mice with gastric carcinoma implants were treated with 2×10^6 pfu Seprehvir by either intratumoural (IT) or intravenous (IV) routes of administration. Control mice (n=3) received no treatment and in these mice the implants grew rapidly and all were sacrificed within 18 days (FIG. 61). For IV injection, Seprehvir was administered on days 0, 3, 10 and 18, at which point the tumors were too large and the mice were sacrificed.
For IT injection of Seprehvir, 2×10^6 pfu was administered on days 0, 3, 10, 18, 21 and 25.
. Control mice (n=3) received no treatment and in these mice the implants grew rapidly and all were sacrificed within 18 days (FIG. 62). […]. A follow-on study with HSV1716 administering more frequent by IV dosing at the higher concentration of 10^7 pfu was performed using the same human gastric carcinoma xenograft model. […].
Groups of 3 mice received IV injection of HSV1716 at 1×10^7 pfu on days 1, 3, 5, 8, 10, 12, 15, 17 and 19. […]

[20] = test system: NCI-H1975; details: NCI-H1975, L858R/T790M EGFR; read-out: IC50, inhibiting survival of lung cancer cell line; cited from earlier work
[21] = test system: H3255; details: H3255, Gefitinib sensitive L858R; cited from earlier work
[22] = test system: H1666; details: H1666, wild-type EGFR; read-out: IC50, inhibiting survival of lung cancer cell line; cited from earlier work

Molecule: N#CC1(c2ccc(NC(=O)c3cccnc3NCc3ccncc3)cc2)CCCC1 [Apatinib, N-[4-(1-cyanocyclopentyl)phenyl-2-(4-picolyl)amino-3-Nicotinamide methanesulphonate]
- pIC50 [2]: 8.63

Molecule: Cc1cc(F)c(Nc2ncnc3cc(OCc4ccccc4)ccc23)cc1O [ZM 323881 HCl, 5-((7-Benzyloxyquinazolin-4-yl)amino)-4-fluoro-2-methylphenol hydrochloride]
- pIC50 [2]: > 8.70

Molecule: CCN1CCN(Cc2ccc(-c3cc4c(N[C@H](C)c5ccccc5)ncnc4[nH]3)cc2)CC1 [AEE788, 6-[4-[(4-Ethylpiperazin-1-yl)methyl]phenyl]-N-[(1R)-1-phenylethyl]-7H-pyrrolo[2,3-d]pyrimidin-4-amine]
- pIC50 [2]: 7.11

Molecule: CCN(CC)CCNC(=O)c1c(C)[nH]c(/C=C2\C(=O)Nc3ccc(F)cc32)c1C [Sunitinib, N-(2-diethylaminoethyl)-5-[(Z)-(5-fluoro-2-oxo-1H-indol-3-ylidene)methyl]-2,4-dimethyl-1H-pyrrole-3-carboxamide]
- synergy/antagonism with HSV1716 on cell death (Chou-Talalay) [3]: strongly synergistic
- synergy/antagonism with HSV1716 on cell death (Chou-Talalay) [4]: antagonistic
- synergy/antagonism with HSV1716 on cell death (Chou-Talalay) [5]: strongly synergistic
- PARP cleavage (executioner phase of apoptosis) ([6]; Hep3B cells): PARP cleavage demonstrated by Western blotting
- PARP cleavage (executioner phase of apoptosis) ([6]; Ovcar3 cells): PARP cleavage demonstrated by Western blotting
- effect on GFP expression during HSV1716gfp infection ([7]; CP70, moi 0.05, 72 hrs): more pronounced
- effect on GFP expression during HSV1716gfp infection ([7]; SPC111, moi 0.05, 72 hrs): more pronounced
- effect on GFP expression during HSV1716gfp infection ([7]; all 9 cell lines tested, moi 0.5 and moi 0.05, 72 hours): increased GFP expression
- synergy/antagonism with HSV1716 on cell death (Chou-Talalay) [8]: strongly synergistic
- pIC50 [9]: 4.82 to 6.30
- synergy/antagonism with HSV1716 on cell death (Chou-Talalay) [10]: strongly synergistic
- number of cell lines in which moi 0.05 generated synergy [11]: 9 of the 10
- number of cell lines in which moi 0.5 generated synergy [11]: 7 of the 10
- number of cell lines tested with clear synergy signals / synergism with HSV1716 [11]: 9 of the 10
- synergy/antagonism with HSV1716 on cell death (Chou-Talalay) [12]: strongly synergistic
- synergy/antagonism with HSV1716 on cell death (Chou-Talalay) [13]: some evidence of synergy

Molecule: COc1cc2ncnc(Nc3ccc(F)c(Cl)c3)c2cc1OCCCN1CCOCC1 [Gefitinib, N-(3-chloro-4-fluoro-phenyl)-7-methoxy-6-(3-morpholin-4-ylpropoxy)quinazolin-4-amine]
- overall synergy/antagonism with HSV1716 on cell death [11]: antagonistic with HSV1716 in all cell lines; also recorded: mostly antagonistic
- synergy/antagonism with HSV1716 on cell death (Chou-Talalay) [14]: Synergy

Molecule: N-(2-fluoro-4-((2-(4-(4-methylpiperazin-1-yl)piperidine-1-carboxamido)pyridin-4-yl)oxy)phenyl)-N-(4-fluorophenyl)cyclopropane-1,1-dicarboxamide [Golvatinib]
- pIC50 [15]: 7.85
- pIC50 [2]: 7.80

Molecule: Nc1nccc(Oc2ccc(NC(=O)c3c[nH]cc(-c4ccc(F)cc4)c3=O)cc2F)c1Cl [BMS 794833, N-(4-((2-amino-3-chloropyridin-4-yl)oxy)-3-fluorophenyl)-5-(4-fluorophenyl)-4-oxo-1,4-dihydropyridine-3-carboxamide]
- pIC50 [2]: 7.82

Molecule: Cc1[nH]c(/C=C2\C(=O)Nc3ccccc32)c(C)c1CCC(=O)O [TSU-68, (Z)-3-(2,4-dimethyl-5-((2-oxoindolin-3-ylidene)methyl)-1H-pyrrol-3-yl)propanoic acid]
- pKi ([16]; read-out: Ki for PDGFRβ): 8.10
- pKi ([2]; read-out: Ki for VEGFR2 (Flk-1/KDR)): 5.68

Molecule: C[C@@H](Oc1cc(-c2cnn(C3CCNCC3)c2)cnc1N)c1c(Cl)ccc(F)c1Cl [Crizotinib, 3-[(1R)-1-(2,6-dichloro-3-fluorophenyl)ethoxy]-5-(1-piperidin-4-ylpyrazol-4-yl)pyridin-2-amine]
- synergy/antagonism with HSV1716 on cell death (Chou-Talalay) [17]: some limited synergy
- synergy/antagonism with HSV1716 on cell death (Chou-Talalay) [3]: synergistic
- synergy/antagonism with HSV1716 on cell death (Chou-Talalay) [18]: some limited synergy
- synergy/antagonism with HSV1716 on cell death (Chou-Talalay) [4]: strongly synergistic
- synergy/antagonism with HSV1716 on cell death (Chou-Talalay) [5]: strongly synergistic
- effect on GFP expression during HSV1716gfp infection ([7]; CP70, moi 0.5 and 0.05, 72 hrs): increased GFP expression
- effect on GFP expression during HSV1716gfp infection ([7]; Hep3B, moi 0.5 and 0.05, 72 hrs): decreased GFP expression
- effect on GFP expression during HSV1716gfp infection ([7]; HepG2-luc, both moi (0.5 and 0.05), 72 hrs): little effect on GFP expression
- effect on GFP expression during HSV1716gfp infection ([7]; HuH7, moi 0.5 and 0.05, 72 hrs): decreased GFP expression
- effect on GFP expression during HSV1716gfp infection ([7]; One58, moi 0.5 and 0.05, 72 hrs): increased GFP expression
- effect on GFP expression during HSV1716gfp infection ([7]; Ovcar3, moi 0.5 and 0.05, all drug doses, 72 hrs): little effect on GFP expression
- effect on GFP expression during HSV1716gfp infection ([7]; SPC-111, moi 0.5 and 0.05, all drug doses, 72 hrs): little effect on GFP expression
- effect on GFP expression during HSV1716gfp infection ([7]; Skov3, moi 0.5 and 0.05, all drug doses, 72 hrs): little effect on GFP expression
- effect on GFP expression during HSV1716gfp infection ([7]; U87, moi 0.5 and 0.05, 72 hrs): increased GFP expression
- effect on GFP expression during HSV1716gfp infection ([7]; UVW, moi 0.5 and 0.05, 72 hrs): decreased GFP expression
- synergy/antagonism with HSV1716 on cell death (Chou-Talalay) [8]: strongly synergistic
- pIC50 [9]: 4.52 to 5.70
- synergy/antagonism with HSV1716 on cell death (Chou-Talalay) [10]: some limited synergy
- number of cell lines in which moi 0.05 generated synergy [11]: 8 of the 9
- number of cell lines in which moi 0.5 generated synergy [11]: 3 of the 9
- synergy/antagonism with HSV1716 on cell death (Chou-Talalay) [12]: antagonistic
- synergy/antagonism with HSV1716 on cell death (Chou-Talalay) [13]: some limited synergy

Molecule: CCCNC(=O)Nc1ccc(Oc2ncnc3cc(OC)c(OC)cc23)cc1Cl [KRN 633, N-[2-Chloro-4-[(6,7-dimethoxy-4-quinazolinyl)oxy]phenyl]-N′-propylurea]
- pIC50 [16]: 5.01
- pIC50 [2]: 6.80

Molecule: COc1cc2c(Oc3ccc4[nH]c(C)cc4c3F)ncnc2cc1OCCCN1CCCC1 [Cediranib, 4-[(4-fluoro-2-methyl-1H-indol-5-yl)oxy]-6-methoxy-7-[3-(pyrrolidin-1-yl)propoxy]quinazoline]
- pIC50 [2]: 9.30

Molecule: CNC(=O)c1cc(Oc2ccc(NC(=O)Nc3ccc(Cl)c(C(F)(F)F)c3)c(F)c2)ccn1.O [Regorafenib, 4-[4-({[4-Chloro-3-(trifluoromethyl)phenyl]carbamoyl}amino)-3-fluorophenoxy]-N-methylpyridine-2-carboxamide hydrate]
- tumour growth inhibition [19]: highly effective at tumour growth inhibition

Molecule: CN(C)CC=CC(=O)Nc1cc2c(Nc3ccc(F)c(Cl)c3)ncnc2cc1O[C@H]1CCOC1 [Afantinib, N-[4-[(3-Chloro-4-fluorophenyl)amino]-7-[[(3S)-tetrahydro-3-furanyl]oxy]-6-quinazolinyl]-4(dimethylamino)-2-butenamide]
- pIC50 [20]: > 7.00
- IC50, inhibiting survival of lung cancer cell line [21]: subnanomolar
- pIC50 [22]: > 7.00

Molecule: CN(C[C@@H]1COCCO1)S(=O)(=O)Nc1ccc2ccc3ncc(-c4cnn(C)c4)cc3c(=O)c2c1 [MK-2461, N-((2R)-1,4-Dioxan-2-ylmethyl)-N-methyl-N′-[3-(1-methyl-1H-pyrazol-4-yl)-5-oxo-5H-benzo[4,5]cyclohepta[1,2-b]pyridin-7-yl]sulfamide]
- pIC50 [15]: 8.60
- pIC50 [16]: 7.66
